Laboratory results reported in patent publication US10208019B2, “GLP-1 receptor agonists and uses thereof” (Pfizer Inc., priority 2016, dated 2019).

What was measured:
human GLP-1R [1] = target: human GLP-1R (Homo sapiens (Human), UniProt P43220, L260F); assay: CHO GLP-1R Clone C6—Assay 2: HTRF cAMP cell-based functional agonist assay (low GLP-1R density); details: for EC50: CHO GLP-1R Clone C6, cAMP HTRF, geometric mean; for Emax: CHO GLP-1R Clone C6, relative to saturating concentration of full agonist GLP-1 (1 μM), arithmetic mean, read-out: Assay 2 Emax (%)
Chain of human GLP-1R (Homo sapiens (Human), UniProt P43220, L260F) (P43220 24-463 L260F): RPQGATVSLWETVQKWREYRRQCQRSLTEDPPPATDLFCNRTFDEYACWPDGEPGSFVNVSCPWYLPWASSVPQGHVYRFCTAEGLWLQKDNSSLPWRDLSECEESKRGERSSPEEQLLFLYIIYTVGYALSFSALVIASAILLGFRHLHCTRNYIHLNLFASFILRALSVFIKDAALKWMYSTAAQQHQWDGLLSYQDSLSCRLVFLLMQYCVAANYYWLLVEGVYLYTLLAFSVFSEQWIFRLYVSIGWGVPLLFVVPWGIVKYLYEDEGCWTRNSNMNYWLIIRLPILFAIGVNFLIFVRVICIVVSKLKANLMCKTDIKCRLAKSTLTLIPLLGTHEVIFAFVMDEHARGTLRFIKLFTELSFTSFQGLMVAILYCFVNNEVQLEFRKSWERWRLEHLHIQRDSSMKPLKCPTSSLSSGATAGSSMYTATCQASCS

human GLP-1R [2] = target: human GLP-1R (Homo sapiens, UniProt P43220, G168S); assay: CHO GLP-1R Clone H6—Assay 1: HTRF cAMP cell-based functional agonist assay (high GLP-1R density); details: for EC50: read-out: Assay 1 EC50, CHO GLP-1R Clone H6, cAMP HTRF, geometric mean; for Emax: read-out: Assay 1 Emax (%), CHO GLP-1R Clone H6; for Emax / Assay 1 Emax (%): relative to saturating concentration of full agonist GLP-1 (1 μM), arithmetic mean; for Assay 1 Emax (%): CHO GLP-1R Clone H6
Chain of human GLP-1R (Homo sapiens, UniProt P43220, G168S) (P43220 24-463 G168S limits assumed): as the sequence (P43220 24-463 L260F) above, with G145S, F237L counted along it

EC50 (human GLP-1R [1])	Emax (human GLP-1R [1])	EC50 (human GLP-1R [2])	Emax (human GLP-1R [2])	Structure (SMILES)	Assay 1 Emax (%) (human GLP-1R [2])
150 nM	84%	6 nM	73%	O=C(O)c1cc2c(cn1)nc(CN1CCC(c3cccc(OCc4ccc(Cl)cc4F)n3)CC1)n2C[C@@H]1CCO1 [Example 2A-05, 2-[(4-{6-[(4-chloro-2-fluorobenzyl)oxy]pyridin-2-yl}piperidin-1-yl)methyl]-1-[(2S)-oxetan-2-ylmethyl]-1H-imidazo[4,5-c]pyridine-6-carboxylic acid]	–
120 nM	85%	7.1 nM	81%	COCCn1c(CN2CCN(c3ccc(F)c(OCc4ccc(C#N)cc4)n3)C[C@@H]2C)nc2ccc(C(=O)O)cc21 [Example 1A-08, 2-{[(2S)-4-{6-[(4-cyanobenzyl)oxy]-5-fluoropyridin-2-yl}-2-methylpiperazin-1-yl]methyl}-1-(2-methoxyethyl)-1H-benzimidazole-6-carboxylic acid]	–
170 nM	96%	6.9 nM	78%	COCCn1c(CN2CCN(c3cccc(OCc4ccc(Cl)cc4F)n3)C[C@@H]2C)nc2ccc(C(=O)O)cc21 [Example 12A-10, 2-{[(2S)-4-{6-[(4-chloro-2-fluorobenzyl)oxy]pyridin-2-yl}-2-methylpiperazin-1-yl]methyl]-1-(2-methoxyethyl)-1H-benzimidazole-6-carboxylic acid]	–
21 nM	84%	5.3 nM	76%	O=C(O)c1ccc2nc(CN3CCC(c4cccc(OCc5ccc(Cl)cc5F)n4)CC3)n(Cc3ccon3)c2c1 [Example 11A-69, 2-[(4-{6-[(4-chloro-2-fluorobenzyl)oxy]pyridin-2-yl}piperidin-1-yl)methyl]-1-(1,2-oxazol-3-ylmethyl)-1H-benzimidazole-6-carboxylic acid]	–
130 nM	94%	5.7 nM	78%	N#Cc1ccc(COc2cccc(C3CCN(Cc4nc5ccc(C(=O)O)nc5n4Cc4cnco4)CC3)n2)c(F)c1 [Example 10A-24]	–
45 nM	83%	1.7 nM	67%	C[C@H]1CN(c2cccc(OCc3ccc(Cl)cc3F)n2)CCN1Cc1nc2ccc(C(=O)O)cc2n1Cc1cnco1 [Example 10A-16, 2-{[(2S)-4-{6-[(4-chloro-2-fluorobenzyl)oxy]pyridin-2-yl}-2-methylpiperazin-1-yl]methyl}-1-(1,3-oxazol-5-ylmethyl)-1H-benzimidazole-6-carboxylic acid]	–
350 nM	82%	21 nM	79%	COCCn1c(CN2CCC(c3ccc(F)c(OCc4ccc(Cl)cc4F)n3)CC2)nc2ccc(C(=O)O)cc21 [Example 1A-04, 2-[(4-{6-[(4-chloro-2-fluorobenzyl)oxy]-5-fluoropyridin-2-yl}piperidin-1-yl)methyl]-1-(2-methoxyethyl)-1H-benzimidazole-6-carboxylic acid]	–
680 nM	110%	43 nM	82%	COCCn1c(CN2CCC(c3cccc(OCc4ccc(Cl)cc4F)n3)CC2)nc2ncc(C(=O)O)nc21 [Example 2A-10, 2-[(4-{6-[(4-chloro-2-fluorobenzyl)oxy]pyridin-2-yl}piperidin-1-yl)methyl]-1-(2-methoxyethyl)-1H-imidazo[4,5-b]pyrazine-6-carboxylic acid]	–
10 nM	120%	0.96 nM	100%	N#Cc1ccc(COc2cccc(N3CCN(Cc4nc5ccc(C(=O)O)nc5n4C[C@@H]4CCO4)CC3)n2)c(F)c1 [Example 10A-77, 2-[(4-{6-[(4-cyano-2-fluorobenzyl)oxy]pyridin-2-yl}piperazin-1-yl)methyl]-3-[(2S)-oxetan-2-ylmethyl]-3H-imidazo[4,5-b]pyridine-5-carboxylic acid]	–
1100 nM	79%	36 nM	73%	O=C(O)c1ccc2nc(CN3CCC(c4cccc(OCc5ccc(Cl)cc5F)n4)CC3)n(C3CCOC3)c2c1 (centres unmarked) [Example 11A-26, 2-[(4-{6-[(4-chloro-2-fluorobenzyl)oxy]pyridin-2-yl}piperidin-1-yl)methyl]-1-(tetrahydrofuran-3-yl)-1H-benzimidazole-6-carboxylic acid]	–
19 nM	75%	1 nM	76%	O=C(O)c1ccc2nc(CN3CCN(c4cccc(OCc5ccc(Cl)cc5F)n4)CC3)n(Cc3cnco3)c2c1 [Example 10A-45, 2-[(4-{6-[(4-chloro-2-fluorobenzyl)oxy]pyridin-2-yl}piperazin-1-yl)methyl]-1-(1,3-oxazol-5-ylmethyl)-1H-benzimidazole-6-carboxylic acid]	–
–	120%	–	92%	[2H]C([2H])(Oc1cccc(C2CCN(Cc3nc4ccc(C(=O)O)cc4n3C[C@@H]3CCO3)CC2)n1)c1ccc(C#N)cc1F [Example 1A-09, 2-{[4-(6-{[(4-cyano-2-fluorophenyl)(methyl-d2)]oxy}pyridin-2-yl)piperidin-1-yl]methyl}-1-[(2S)-oxetan-2-ylmethyl]-1H-benzimidazole-6-carboxylic acid]	–
2200 nM	83%	120 nM	76%	Cn1c(CN2CCC(c3cccc(OCc4ccc(Cl)cc4F)n3)CC2)nc2cc(F)c(C(=O)O)cc21 [Example 2A-09, 2-[(4-{6-[(4-chloro-2-fluorobenzyl)oxy]pyridin-2-yl}piperidin-1-yl)methyl]-5-fluoro-1-methyl-1H-benzimidazole-6-carboxylic acid]	–
–	–	1300 nM	42%	COCCn1c(CN2CCN(c3cccc(OCc4ccc(Cl)cc4F)n3)C[C@@H]2C(C)C)nc2ccc(C(=O)O)cc21 [Example 12A-05, 2-{[(2S)-4-{6-[(4-chloro-2-fluorobenzyl)oxy]pyridin-2-yl}-2-(propan-2-yl)piperazin-1-yl]methyl}-1-(2-methoxyethyl)-1H-benzimidazole-6-carboxylic acid]	–
–	–	2400 nM	87%	Cn1c(CN2CCC(c3cccc(OCc4cccc(F)c4F)n3)CC2)nc2ccc(C(=O)O)cc21 [Example 9A-08, 2-[(4-{6-[(2,3-difluorobenzyl)oxy]pyridin-2-yl}piperidin-1-yl)methyl]-1-methyl-1H-benzimidazole-6-carboxylic acid]	–
–	–	190 nM	74%	O=C(O)c1ccc2nc(CN3CCC(c4cccc(OCc5ccc(Cl)cc5F)n4)CC3)n(CCc3c[nH]cn3)c2c1 [Example 11A-41, 2-[(4-{6-[(4-chloro-2-fluorobenzyl)oxy]pyridin-2-yl}piperidin-1-yl)methyl]-1-[2-(1H-imidazol-4-yl)ethyl]-1H-benzimidazole-6-carboxylic acid]	–
–	–	2900 nM	89%	Cn1c(CN2CCC(c3cccc(OCc4c(F)cccc4F)n3)CC2)nc2ccc(C(=O)O)cc21 [Example 9A-04, 2-[(4-{6-[(2,6-difluorobenzyl)oxy]pyridin-2-yl}piperidin-1-yl)methyl]-1-methyl-1H-benzimidazole-6-carboxylic acid]	–
–	–	1300 nM	79%	CCc1noc(Cn2c(CN3CCC(c4cccc(OCc5ccc(Cl)cc5F)n4)CC3)nc3ccc(C(=O)O)cc32)n1 [Example 10A-52]	–
–	–	450 nM	71%	Cn1cnnc1CCn1c(CN2CCC(c3cccc(OCc4ccc(Cl)cc4F)n3)CC2)nc2ccc(C(=O)O)cc21 [Example 11A-53, 2-[(4-{6-[(4-chloro-2-fluorobenzyl)oxy]pyridin-2-yl}piperidin-1-yl)methyl]-1-[2-(4-methyl-4H-1,2,4-triazol-3-yl)ethyl]-1H-benzimidazole-6-carboxylic acid]	–
–	–	1700 nM	80%	CC(C)(C)n1cnnc1Cn1c(CN2CCC(c3cccc(OCc4ccc(Cl)cc4F)n3)CC2)nc2ccc(C(=O)O)cc21 [Example 10A-46]	–
–	–	880 nM	59%	Cn1c(CN2CCC(c3cccc(OCc4ccc(OC(F)(F)F)cc4)n3)CC2)nc2ccc(C(=O)O)cc21 [Example 9A-09, 1-methyl-2-{[4-(6-{[4-(trifluoromethoxy)benzyl]oxy}pyridin-2-yl)piperidin-1-yl]methyl}-1H-benzimidazole-6-carboxylic acid]	–
–	–	2900 nM	88%	O=C(O)c1ccc2nc(CN3CCC(c4cccc(OCc5ccc(Cl)cc5F)n4)CC3)n(Cc3n[nH]c(C4CC4)n3)c2c1 [Example 11A-64, 2-[(4-{6-[(4-chloro-2-fluorobenzyl)oxy]pyridin-2-yl}piperidin-1-yl)methyl]-1-[(5-cyclopropyl-1H-1,2,4-triazol-3-yl)methyl]-1H-benzimidazole-6-carboxylic acid]	–
–	–	1200 nM	–	CC(C)n1c(CN2CCC(c3cccc(OCc4ccc(Cl)cc4F)n3)CC2)nc2ccc(C(=O)O)cc21 [Example 10A-40]	53%
–	–	33 nM	80%	CN1CCC1Cn1c(CN2CCC(c3cccc(OCc4ccc(Cl)cc4F)n3)CC2)nc2ccc(C(=O)O)cc21 (centres unmarked) [Example 10A-79]	–
–	–	–	100%	CN1CC(Cn2c(CN3CCC(c4cccc(OCc5ccc(Cl)cc5F)n4)CC3)nc3ccc(C(=O)O)cc32)C1 [Example 10A-19]	–

Structure (SMILES)	EC50 (human GLP-1R [1])	Emax (human GLP-1R [1])	EC50 (human GLP-1R [2])	Emax (human GLP-1R [2])	Assay 1 Emax (%) (human GLP-1R [2])
C[C@H]1CN(c2cccc(OCc3ccc(C#N)cc3)n2)CCN1Cc1nc2ccc(C(=O)O)cc2n1CC1CCCO1 (single isomer, unassigned; diastereomer 1) [Example 14A-07]	55 nM	–	1.9 nM	–	63%
CN1CC(Cn2c(CN3CCC(c4cccc(OCc5ccc(Cl)cc5F)n4)CC3)nc3ccc(C(=O)O)cc32)CC1=O (centres unmarked) [Example 11A-42, 2-[(4-{6-[(4-chloro-2-fluorobenzyl)oxy]pyridin-2-yl}piperidin-1-yl]methyl]-1-[(1-methyl-5-oxopyrrolidin-3-yl)methyl]-1H-benzimidazole-6-carboxyl ic acid]	–	–	190 nM	–	–
